# Assay results from patent publication US20220213092A1, “BICYCLIC PYRAZOLE BRUTON'S TYROSINE KINASE INHIBITORS” (AbbVie Inc., priority 2020, published 2022).
# Assays:
# [1] = molecular target: T1, BTK (Homo sapiens, UniProt Q06187); test: BTK kinase electrophoretic mobility shift assay (MSA); type: biochemical; conditions: 50 μM ATP, 0.5 nM BTK enzyme (Nanosyn-293HEK, WT), 3 hours at 25° C.; all examples except 50, 51, 62 and 63; read-out: BTK IC50
# T1 construct: purchased Nanosyn, Santa Clara, Calif; host or cells: 293HEK
# [2] = molecular target: T2, Phosphorylation of Y223 of BTK (Homo sapiens, UniProt Q06187); test: Whole blood compound screening, phosphorylation of Y223 site of BTK (MSD assay); type: cell-based; conditions: healthy human whole blood, 2 hours at 37° C., 3 separate donors; read-out: WB BTK-pY223 EC50
# T2 construct: host or cells: healthy human whole blood, 3 donors
# Description: Healthy human whole blood (WB) was collected from […]™ Technologies or […]® in sodium heparinized tubes. Whole blood was stored at ambient temperature to avoid coagulation. Each compound was tested in 3 separate donors. Compound stock solutions (10 mM) were used to generate dose titration (8 concentrations, starting concentration 10 μM, 1:4 dilution) in appropriate volume of dimethyl sulfoxide (0.2%). Whole blood was incubated with compounds in 96-well plates for 2 hours in tissue culture incubators at 37° C. under a 5% CO2 atmosphere. The whole blood was lysed in equal volume of lysis buffer (Cell Signaling Technology®, Danvers, Mass.) containing complete protease inhibitor tablet, PhosSTOP™ tablet, sodium orthovanadate and sodium fluoride and phenylmethanesulfonyl fluoride solution. The lysed whole blood was then frozen at −80° C. for overnight.
# Phosphorylation of Y223 of BTK was measured using an MSD assay (Meso Scale Diagnostics, LLC, Rockville, Md.). The thawed lysed whole blood was incubated with the capturing antibody rabbit anti-human BTK (D3H5) (Cell Signaling Technology, Danvers, Mass.) at 4° C. overnight. After washing out the unbound samples, the detection antibody biotinylated rabbit anti-pY223-BTK(D9T6H) (Cell Signaling Technology®, Danvers, Mass.) was added to the plates. After washing out the unbound antibodies, SULFO-TAG Streptavidin (Meso Scale Diagnostics, LLC, Rockville, Md.) was used for detection on Meso Sector S600 (Meso Scale Diagnostics, LLC, Rockville, Md.).
# The EC50 values were determined using software from Dotmatics. The activity of exemplary compounds is illustrated below.
# T1 sequence (Q06187 whole entry): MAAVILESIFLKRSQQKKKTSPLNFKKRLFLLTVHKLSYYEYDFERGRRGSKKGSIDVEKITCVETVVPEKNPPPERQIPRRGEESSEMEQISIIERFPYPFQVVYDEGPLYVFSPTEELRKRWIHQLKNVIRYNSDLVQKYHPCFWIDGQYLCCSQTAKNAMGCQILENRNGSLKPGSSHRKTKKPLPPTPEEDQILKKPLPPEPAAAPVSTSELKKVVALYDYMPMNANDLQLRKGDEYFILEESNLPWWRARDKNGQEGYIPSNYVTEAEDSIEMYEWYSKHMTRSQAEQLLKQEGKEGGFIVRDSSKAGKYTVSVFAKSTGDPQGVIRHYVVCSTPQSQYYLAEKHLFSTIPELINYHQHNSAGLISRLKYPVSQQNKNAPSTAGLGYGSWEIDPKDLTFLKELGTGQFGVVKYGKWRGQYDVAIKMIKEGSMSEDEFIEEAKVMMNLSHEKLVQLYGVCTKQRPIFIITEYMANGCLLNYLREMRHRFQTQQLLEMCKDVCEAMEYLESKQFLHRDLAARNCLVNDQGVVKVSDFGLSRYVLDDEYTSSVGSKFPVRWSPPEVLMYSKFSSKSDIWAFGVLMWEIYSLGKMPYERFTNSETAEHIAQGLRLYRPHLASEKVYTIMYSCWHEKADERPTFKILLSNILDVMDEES
# T2 sequence (Q06187 whole entry): as above
IC50 [1] [nM],EC50 [2] [nM],SMILES
15.7,255,"C=CC(=O)N1C2CC1CN([C@@H]1CCNc3c1nn(-c1ccc(Oc4ccccc4)cc1)c3C(N)=O)C2 [Example 73, (7R)-2-(4-phenoxyphenyl)-7-[6-(prop-2-enoyl)-3,6-diazabicyclo[3.1.1]heptan-3-yl]-4,5,6,7-tetrahydro-2H-pyrazolo[4,3-b]pyridine-3-carboxamide]"
0.495,32.9,"C=CC(=O)N1CCC(C2CCNc3c2nn(-c2ccc(Oc4cccc(F)c4)cc2)c3C(N)=O)CC1 (stereo not shown) [Example 12, 2-[4-(3-fluorophenoxy)phenyl]-7-[1-(prop-2-enoyl)piperidin-4-yl]-4,5,6,7-tetrahydro-2H-pyrazolo[4,3-b]pyridine-3-carboxamide]"
7.09,239,"C=CC(=O)N1CCN([C@@H]2CCNc3c2nn(-c2ccc(Oc4ccc(F)cc4F)cc2)c3C(N)=O)CC1 [Example 70, (7R)-2-[4-(2,4-difluorophenoxy)phenyl]-7-[4-(prop-2-enoyl)piperazin-1-yl]-4,5,6,7-tetrahydro-2H-pyrazolo[4,3-b]pyridine-3-carboxamide]"
15.4,158,"C=CC(=O)N1CCN([C@@H]2CCNc3c2nn(-c2ccc(Oc4ccc(O)cc4)cc2)c3C(N)=O)CC1 [Example 44, (7R)-2-[4-(4-hydroxyphenoxy)phenyl]-7-[4-(prop-2-enoyl)piperazin-1-yl]-4,5,6,7-tetrahydro-2H-pyrazolo[4,3-b]pyridine-3-carboxamide]"
1.76,85.9,"C=CC(=O)N1CCN(C2CCNc3c2nn(-c2ccc(Oc4cccc(F)c4)cc2)c3C(N)=O)CC1 (stereo not shown) [Example 57, 2-[4-(3-fluorophenoxy)phenyl]-7-[4-(prop-2-enoyl)piperazin-1-yl]-4,5,6,7-tetrahydro-2H-pyrazolo[4,3-b]pyridine-3-carboxamide]"
0.515,44.1,"C=CC(=O)N1CCN([C@@H]2CCNc3c2nn(-c2ccc(Oc4ccccc4)cc2)c3C(N)=O)CC12CC2 [Example 82, (7R)-2-(4-phenoxyphenyl)-7-[4-(prop-2-enoyl)-4,7-diazaspiro[2.5]octan-7-yl]-4,5,6,7-tetrahydro-2H-pyrazolo[4,3-b]pyridine-3-carboxamide]"
0.533,31.5,"C=CC(=O)N1CCN([C@@H]2CCNc3c2nn(-c2ccc(Oc4cccc(F)c4F)cc2)c3C(N)=O)CC1 [Example 77, (7R)-2-[4-(2,3-difluorophenoxy)phenyl]-7-[4-(prop-2-enoyl)piperazin-1-yl]-4,5,6,7-tetrahydro-2H-pyrazolo[4,3-b]pyridine-3-carboxamide]"
3.32,162,"C=CC(=O)N1CCN([C@@H]2CCNc3c2nn(-c2ccc(Oc4ccc(OC)cc4)cc2)c3C(N)=O)CC1 [Example 87, (7R)-2-[4-(4-methoxyphenoxy)phenyl]-7-[4-(prop-2-enoyl)piperazin-1-yl]-4,5,6,7-tetrahydro-2H-pyrazolo[4,3-b]pyridine-3-carboxamide]"
1.51,56,"C=CC(=O)N1CCN([C@@H]2CCNc3c2nn(-c2ccc(Oc4cc(F)ccc4F)cc2)c3C(N)=O)CC1 [Example 74, (7R)-2-[4-(2,5-difluorophenoxy)phenyl]-7-[4-(prop-2-enoyl)piperazin-1-yl]-4,5,6,7-tetrahydro-2H-pyrazolo[4,3-b]pyridine-3-carboxamide]"
0.331,35.7,"C=CC(=O)N1CCC([C@H]2CCNc3c2nn(-c2ccc(Oc4ccccc4)cc2)c3C(N)=O)CC1 [Example 4, (7R)-2-(4-phenoxyphenyl)-7-[1-(prop-2-enoyl)piperidin-4-yl]-4,5,6,7-tetrahydro-2H-pyrazolo[4,3-b]pyridine-3-carboxamide]"
0.706,315,"C=CC(=O)N1CCN([C@@H]2CCNc3c2nn(-c2ccc(Oc4ccccc4C)cc2)c3C(N)=O)CC1 [Example 86, (7R)-2-[4-(2-methylphenoxy)phenyl]-7-[4-(prop-2-enoyl)piperazin-1-yl]-4,5,6,7-tetrahydro-2H-pyrazolo[4,3-b]pyridine-3-carboxamide]"
0.993,40.7,"C=CC(=O)N1CCN(C2CCNc3c2nn(-c2ccc(Oc4ccccc4)cc2)c3C(N)=O)CC1 (stereo not shown) [Example 3, 2-(4-phenoxyphenyl)-7-[4-(prop-2-enoyl)piperazin-1-yl]-4,5,6,7-tetrahydro-2H-pyrazolo[4,3-b]pyridine-3-carboxamide]"
66.6,1730,"C=CC(=O)N1CCN([C@H]2CCNc3c2nn(-c2ccc(Oc4ccccc4)cc2)c3C(N)=O)CC12CC2 [Example 83, (7S)-2-(4-phenoxyphenyl)-7-[4-(prop-2-enoyl)-4,7-diazaspiro[2.5]octan-7-yl]-4,5,6,7-tetrahydro-2H-pyrazolo[4,3-b]pyridine-3-carboxamide]"
1.2,71.8,"C=CC(=O)N1CCN(C2CCNc3c2nn(-c2ccc(Oc4ccccc4)cc2)c3C(N)=O)CC12CC2 (stereo not shown) [Example 53, 2-(4-phenoxyphenyl)-7-[4-(prop-2-enoyl)-4,7-diazaspiro[2.5]octan-7-yl]-4,5,6,7-tetrahydro-2H-pyrazolo[4,3-b]pyridine-3-carboxamide]"
1.11,38.2,"C=CC(=O)N1CC(N2CCNc3c2nn(-c2ccc(Oc4ccccc4)cc2)c3C(N)=O)C1 [Example 22, 2-(4-phenoxyphenyl)-7-[1-(prop-2-enoyl)azetidin-3-yl]-4,5,6,7-tetrahydro-2H-pyrazolo[3,4-b]pyrazine-3-carboxamide]"
5.09,400,"C=CC(=O)N1CCN([C@@H]2CCNc3c2nn(-c2ccc(Oc4ccccc4OC)cc2)c3C(N)=O)CC1 [Example 93, (7R)-2-[4-(2-methoxyphenoxy)phenyl]-7-[4-(prop-2-enoyl)piperazin-1-yl]-4,5,6,7-tetrahydro-2H-pyrazolo[4,3-b]pyridine-3-carboxamide]"
7.84,21.7,"C=CC(=O)N1C2CC1CN([C@H]1CCNc3c1nn(-c1ccc(Oc4ccccc4)cc1)c3C(N)=O)C2 [Example 72, (7S)-2-(4-phenoxyphenyl)-7-[6-(prop-2-enoyl)-3,6-diazabicyclo[3.1.1]heptan-3-yl]-4,5,6,7-tetrahydro-2H-pyrazolo[4,3-b]pyridine-3-carboxamide]"
1.4,45.6,"C=CC(=O)N1CCC(O)(C2CCNc3c2nn(-c2ccc(Oc4ccccc4)cc2)c3C(N)=O)CC1 (stereo not shown) [Example 84, 7-[4-hydroxy-1-(prop-2-enoyl)piperidin-4-yl]-2-(4-phenoxyphenyl)-4,5,6,7-tetrahydro-2H-pyrazolo[4,3-b]pyridine-3-carboxamide]"
0.797,225,"C=CC(=O)N1CCN([C@@H]2CCNc3c2nn(-c2ccc(Oc4cccc(C)c4)cc2)c3C(N)=O)CC1 [Example 88, (7R)-2-[4-(3-methylphenoxy)phenyl]-7-[4-(prop-2-enoyl)piperazin-1-yl]-4,5,6,7-tetrahydro-2H-pyrazolo[4,3-b]pyridine-3-carboxamide]"
0.953,34.2,"C=CC(=O)N1CCN([C@@H]2CCNc3c2nn(-c2ccc(Oc4cccc(C(F)(F)F)c4)cc2)c3C(N)=O)CC1 [Example 65, (7R)-7-[4-(prop-2-enoyl)piperazin-1-yl]-2-{4-[3-(trifluoromethyl)phenoxy]phenyl}-4,5,6,7-tetrahydro-2H-pyrazolo[4,3-b]pyridine-3-carboxamide]"
65.7,1820,"C=CC(=O)N1C[C@@H]2CN(C3CCNc4c3nn(-c3ccc(Oc5ccccc5)cc3)c4C(N)=O)C[C@@H]2C1 (mixture of isomers) [Example 66, 2-(4-phenoxyphenyl)-7-[rac-(3aR,6aS)-5-(prop-2-enoyl)hexahydropyrrolo[3,4-c]pyrrol-2(1H)-yl]-4,5,6,7-tetrahydro-2H-pyrazolo[4,3-b]pyridine-3-carboxamide]"
107,2030,"C=CC(=O)N1CCN([C@@H]2CCNc3c2nn(-c2ccc(Oc4ccc(OC(F)(F)F)cc4)cc2)c3C(N)=O)CC1 [Example 85, (7R)-7-[4-(prop-2-enoyl)piperazin-1-yl]-2-{4-[4-(trifluoromethoxy)phenoxy]phenyl}-4,5,6,7-tetrahydro-2H-pyrazolo[4,3-b]pyridine-3-carboxamide]"
1.14,61,"C=CC(=O)N1CC(N2CCNc3c2nn(-c2ccc(Oc4ccccc4F)cc2)c3C(N)=O)C1 [Example 75, 2-[4-(2-fluorophenoxy)phenyl]-7-[1-(prop-2-enoyl)azetidin-3-yl]-4,5,6,7-tetrahydro-2H-pyrazolo[3,4-b]pyrazine-3-carboxamide]"
